Assay results published in patent US5208217A, “Hepatospecific insulin analogues” (Mount Sinai School of Medicine of The City University of …, priority 1991, dated 1993).

Tests used:
isolated rat adipocytes = test: Lipogenesis assay: conversion of [3-3H] glucose into lipids; format: cell-based; conditions: FIG. 3
Description: In this Example the materials used and the analytical procedures followed are those found in Kitagawa et al., Biochemistry, 23: 1405-1413 (1984). ^125 I-insulin for receptor binding studies and [3-^3 H] glucose for lipogenesis were obtained from DuPont NEN Research Products. Cellulose acetate membrane filters, 0.2 μm pore size, were products of Sartorius. Glass-fiber filters, Type GFC, were from Whatman. Collagenase, Type II crude, was obtained from Worthington. The scintillation fluids Filtron-X®, Hydrofluor® and Soluscint-O® were products of National Diagnostics. Crystalline bovine insulin was from Sigma, and fatty-acid free bovine serum albumin from Boehringer - Mannheim Biochemicals.
The data points represent the mean triplicate determinations in representative assays performed four times.

[1] = tested on: FAO cells (well differentiated hepatoma cell line); test: Inhibition of gluconeogenesis assay (glucose secretion into the medium); format: cell-based; conditions: FIG. 4
Procedure: This assay was carried out on confluent monolayers of a well differentiated hepatoma cell line (Lauris et al. Endocrinology 118:2519-2524 (1986)) in which glucose production was monitored with a commercial glucose oxidase kit (Sigma kit no. 510-A, Sigma Technical Bulletin 510, 1983). Inhibition of glucose secretion into the medium was determined as a function of the concentration of insulin or insulin analogue, and the relative potency of the analogue was defined as the ratio of the concentration of insulin to analogue required to produce half-maximal inhibition of glucose production. The cell culture and glucose production was carried out as described by Lauris et al., supra.
The potency of the synthetic insulin in inhibiting gluconeogenesis is calculated to be about 90% relative to the natural hormone.

[Trp^14 -A] insulin
Concentration of agonist producing half-maximal stimulation of lipogenesis compared with bovine insulin (isolated rat adipocytes): about twice the concentration
Maximum stimulation of lipogenesis compared with bovine insulin (isolated rat adipocytes): same maximum stimulation
Concentration of agonist producing half-maximal inhibition of gluconeogenesis compared with insulin [1]: approximately the same concentration
Maximum inhibition of gluconeogenesis compared with insulin [1]: same maximum inhibition
